Measured values from patent US20180263945A1, “PYRUVATE COMPOUNDS FOR TREATMENT OF PERIPHERAL NEUROPATHY” (Research Institute at Nationwide Children's Hospital, priority 2014, published 2018).

B1: neurotrophin-3 (protein, UniProt P20783 139-257, looked up)
Neurotrophin-3: YAEHKSHRGEYSVCDSESLWVTDKSSAIDIRGHQVTVLGEIKTGNSPVKQYFYETRCKEARPVKNGCRGIDDKHWNSQCKTSQTYVRALTSENNKLVGWRWIRIDTSCVCALSRKIGRT
modifications: Neurotrophin-3
notes: neurotrophic agent neurotrophin-3

Assays:
[1] = test system: Sciatic Nerves from Tr^J Mice; experiment: Myelinated fiber density determinations, sciatic nerve crush/regeneration study (Example 1); type: in vivo; settings: 4% sodium pyruvate in drinking water, twenty weeks after crush
Procedure: (§1) Six weeks old Tr^J mice (pmp22^Tr-J) were used in this study. A total of 8 Tr^J mice (mouse model for demyelinating CMT) were studied. Five received SP, 4% in drinking water, 3 mice left untreated to serve as control. All treatment protocols and animal surgeries were conducted under the protocols approved by the Nationwide Children's Hospital and The Ohio State University Animal Care and Use Committee. Animals were acclimatized by placing on 2.5% apple juice first, which was increased to 20% a week later. In one group (pyruvate group; n=5) sodium pyruvate (Sigma) was added to apple juice in 2.5% concentration and a week later increased to 4%. The pyruvate group remained 4% sodium pyruvate in 20% apple juice drinking water throughout the duration of the study. The control group (n=3) continued on 20% apple juice only. Drinking solutions were freshly prepared every other day.
Both groups underwent sciatic nerve crush procedure one week after starting on sodium pyruvate in apple juice or apple juice alone, providing the results shown in FIGS. 1 and 2. […]
Quantitative analysis at the light microscopic level was performed on 1 μm-thick toluidine blue stained cross sections from regenerating and intact uncrushed sciatic nerves from pyruvate and control groups. […] Unpaired t-test was calculated using graphPad Prism 6 program for comparison of the two sets of data.

[2] = test system: Sciatic Nerves from Tr^J Mice; experiment: g ratio of the myelinated fibers, sciatic nerve crush/regeneration study (Example 1); type: in vivo; settings: for percent of fibers with G ratio less than 0.8: SP 4% in drinking water, 20 weeks; for percent of fibers within a G ratio range of 0.4-0.7: pyruvate group, control Tr^J 6.5%
Procedure: as §1
Both groups underwent sciatic nerve crush procedure one week after starting on sodium pyruvate in apple juice or apple juice alone, providing the results shown in FIGS. 1 and 2. Under isoflurane anesthesia left sciatic nerves were exposed and crushed with a fine forceps at a level 5 mm distal to the sciatic notch to generate a regeneration paradigm as previously described. Sahenk et al., Exp Neurol 224, 495-506 (2010). The crush site was marked by a 10-0 nylon suture tie passed through the epineurium. Mice were then killed quickly by an over-dosage of xylazine/ketamine anesthesia and the sciatic nerves from crushed and intact sites were removed under a dissecting microscope. Approximately 2 mm in length tissue blocks immediately distal to the crush site and the subsequent three segments, all marked for proximo-distal orientation as well as the mid sciatic segments from the contralateral uncrushed nerves were processed for plastic embedding for light microscope thick sections and electron microscopy using standard methods established by the inventors.
The g ratio refers to the ratio of axonal diameter/fiber diameter and lower g ratios represent axons with thicker myelin. Beuche, W., and Friede, R. L., Acta Neuropathol 66, 29-36 (1985); Friede, R. L., and Beuche, W., J Neurol Neurosurg Psychiatry 48, 749-756 (1985). For each animal, measurements from all fibers in 3 randomly selected representative unit areas were included and the g ratio distribution histograms were generated as percent of total fibers analyzed as previously described. Measurements from regenerating and intact nerves were obtained in each group. One way ANOVA was used to determine statistical analysis.

Tr^J mice [3] = experiment: Sciatic nerve conduction studies (Example 1); type: in vivo
Description: Additional studies were designed to assess the efficacy of pyruvate treatment using a quantitative test that has functional significance. […] Among the parameters obtained from these studies CMAP is a direct measure of the size of the motor unit. Results were compared to age-matched Tr^J-control cohort. Functional studies (hind limb grip strength, wire hanging test and rotorod) were done at baseline and at 7 to 10 day intervals.
(§2) Nerve Conduction Studies: Sciatic motor nerve conduction studies were performed on mice under isoflurane anesthesia using a portable electrodiagnostic system (Synergy N2 EMG and nerve conduction study machine, Natus, Middleton, Wis.) as previously described. Yalvac et al., Mol Ther. 22(7):1353-63 (2014). Distance for electrode placement was measured using a compass with a needle edge and a millimeter-graduated tape measure. The sciatic motor nerve conduction responses were recorded using two fine ring electrodes (Alpine Biomed, Skovlunde, Denmark) used as the active (E1) and reference (E2) electrodes. The active recording electrode was placed over the mid portion of the gastrocnemius muscle and the reference electrode over the tendon. […] The parameters measured included compound muscle action potential (CMAP) amplitude, distal latency, and conduction velocity.

Tr^J mice [4] = experiment: Functional studies: hind limb grip strength, wire hanging test (Example 1); type: in vivo; settings: at 16 weeks of treatment
Procedure: Additional studies were designed to assess the efficacy of pyruvate treatment using a quantitative test that has functional significance. Six Tr^J mice received SP in their drinking water and the sciatic nerve conduction studies were carried out at baseline and 16 weeks of SP supplementation. Among the parameters obtained from these studies CMAP is a direct measure of the size of the motor unit. Results were compared to age-matched Tr^J-control cohort. Functional studies (hind limb grip strength, wire hanging test and rotorod) were done at baseline and at 7 to 10 day intervals.
Wire Hang test: The mice were allowed to grasp by their four paws a 2-mm diameter metal wire maintained horizontally 35 cm above a thick layer of soft bedding (device made by the NCH Bioengineering Department according to the specifications of Klein et al.). Klein et al. J Neurosci Methods, 203:292-297 (2012). The length of time until the mice fell from the wire was recorded. After each fall, the mice were allowed to recover for 1 minute. […]
Motor function testing Tr^J mice were tested for baseline motor function within 1 week prior to receiving i.m. injection of ssAAV1.CMV.NT-3 or PBS. […] Bilateral or unilateral grip strength was assessed by allowing the animals to grasp a platform followed by pulling the animal until it releases the platform; the force measurements were recorded in four separate trials. […]

TrJ mice [5] = experiment: Nerve conduction studies, AAV1.NT-3 and pyruvate combinatorial therapy (Example 2); type: in vivo; settings: 4 months of treatment, 4% SP in drinking water; control group decreased (P<0.05)
Procedure: FIG. 4 provides a bar graph showing the results of nerve conduction studies that were performed at baseline and endpoint following 4 months of treatment duration. […] (Error bars represent standard error of the mean. Student t test was performed).
Using the methods described below, nerve conduction studies were performed at the baseline and the endpoint, 4 months post-AAV1.NT-3 injection. During this period TrJ mice were given ad libitum access to drinking water containing 4% SP.
as §2

TrJ mice [6] = experiment: Motor function: grip strength test and four-limb wire hanging strength test (Example 2); type: in vivo; settings: endpoint, 4 months post injection; P<0.05
Procedure: Mice were tested for motor functions at the endpoint (4 months post injection) by performing grip strength test and four-limb wire hanging strength test. […] (Error bars represent standard error of the mean. Student t test was performed).
Wire Hang test: The mice were allowed to grasp by their four paws a 2-mm diameter metal wire maintained horizontally 35 cm above a thick layer of soft bedding (device made by the NCH Bioengineering Department according to the specifications of Klein et al.). […] The length of time until the mice fell from the wire was recorded. After each fall, the mice were allowed to recover for 1 minute. Each session consisted of three trials from which the scores were averaged.
Motor function testing Tr^J mice were tested for baseline motor function within 1 week prior to receiving i.m. injection of ssAAV1.CMV.NT-3 or PBS. Motor function tests included bilateral simultaneous hindlimb grip power and that of the left hind paw using a grip strength meter (Chatillon Digital Meter; Model DFIS-2; Columbus Instruments, Columbus, Ohio). Bilateral or unilateral grip strength was assessed by allowing the animals to grasp a platform followed by pulling the animal until it releases the platform; the force measurements were recorded in four separate trials. Measurements were performed on the same day and time of each week. […]

[7] = test system: Sciatic Nerves from Tr^J Mice; experiment: Histopathology and myelinated fiber density, sciatic nerves at 16 weeks of treatment (Example 2); type: in vivo
trembler^J (Tr^J) mouse = settings: previous studies of the inventors; cited from earlier work
CMT1A patients = settings: previous studies of the inventors; cited from earlier work

| Molecule | Myelinated Fiber Density, Intact, mean ± SEM ([1]; intact (uncrushed) sciatic nerve, p = 0.0271 vs control) [number/mm2] | Myelinated Fiber Density, Regenerating, mean ± SEM ([1]; regenerating (crushed) sciatic nerve, p = 0.0075 vs control) [number/mm2] | G ratios (axon diameter/fiber diameter) in comparison to the control Tr^J ([2]; intact and regenerating sciatic nerves, lower g ratio = thicker myelin) | percent of fibers with G ratio less than 0.8 ([2]; intact nerves, control 42%) | percent of fibers within a G ratio range of 0.4-0.7 ([2]; intact nerves) | percent of fibers with G ratio less than 0.8 ([2]; regenerating nerves, control 17%) [%] | percent of fibers within a G ratio range of 0.4-0.7 ([2]; regenerating nerves) [%] | improving myelination during regeneration, more than that of the control group ([2]; regenerating nerves, pyruvate supplementation) | Trends for improvements in conduction velocities and distal latencies (Tr^J mice [3]; Tr^J mice, pyruvate supplementation) | CMAP amplitude of the Tr^J sciatic nerves, baseline vs endpoint (Tr^J mice [3]; pyruvate supplementation for 24 weeks, untreated controls deteriorated further) | hind limb grip strength compared to the untreated Tr^J controls (Tr^J mice [4]) | wire hanging test (WHT) compared to the untreated Tr^J controls (Tr^J mice [4]) | CMAP amplitudes at the endpoint compared to the baseline (TrJ mice [5]) | four-limb wire hanging strength test vs control group (TrJ mice [6]) | grip strength test vs control group (TrJ mice [6]) | myelinated fibers and myelin thickness in toluidine blue stained sciatic nerve sections vs untreated ([7]; TrJ mice, 16 weeks of treatment) | Myelinated Fiber Density, mean ± SEM ([7]; sciatic nerves, Tr^J mice, treatment duration 16 wks) [number/mm2] | effect on trembler^J (Tr^J) mouse (trembler^J (Tr^J) mouse) | efficacy in CMT1A patients (CMT1A patients) |
| --- | --- | --- | --- | --- | --- | --- | --- | --- | --- | --- | --- | --- | --- | --- | --- | --- | --- | --- | --- |
| CC(=O)C(=O)[O-].[Na+] [pyruvate, sodium pyruvate] | 16583 ± 749 | 18259 ± 1051 | significantly reduced | about 53% | about 29% | 43 | 22 | about 27% | not significant | protected CMAP amplitude | significantly better | significantly better | preserved their CMAPs | performed better than control group | performed better than control group | notable increase in myelinated fibers and increased myelin thickness | 15000.2 ± 878.4 | – | – |
| B1 | – | – | – | – | – | – | – | – | – | – | – | – | – | – | – | – | – | improved | showed efficacy |
